From patent US20130336988A1, “METHODS FOR TREATING EARLY STAGE OR MILD NEUROLOGICAL DISORDERS” (NEW YORK UNIVERSITY, priority 2010, published 2013)

System: Cortical neurons expressing p75^NTR
Assay: Growth cone collapse in cortical neurons
Assay type: cell-based, mouse
Conditions: cortical neurons expressing p75NTR (not shown)
Method: Primary hippocampal and cortical neurons were isolated from E15 C57BL/6 mouse embryos as previously described (PEREIRA, D. B. et al., Journal of Neuroscience 27:4859-4869 (2007)). Briefly, neurons were dissociated by incubation with 0.05% trypsin at 37° C. for 8 min followed by trituration with fire-polished glass Pasteur pipettes. Cells were plated on poly-D-lysine coated dishes and grown in Neurobasal medium containing B27, 0.5 mM glutamine (all Invitrogen) and 10 μM 5-fluorodeoxyuridine. Hippocampal neurons were transfected at DIV2 using Lipofectamine2000 (Invitrogen). For coverslips in a 24-well plate, 0.5 μg plasmid were mixed with 0.5 μl Lipofectamine2000, and for glass bottom dishes, 1.5 μg plasmid were mixed with 1.5 μl Lipofectamine2000. The complexes were added to the cells for 30-45 min, and then neurons were placed back into preconditioned media until analysis the following day. HT1080 cells were grown in DMEM/10% fetal bovine serum (both Invitrogen) and transfected using the AMAXA nucleofector (Lonza) according to manufacturer's instructions. 293FT cells were grown in DMEM/10% fetal bovine serum and transfected with Lipofectamine2000 according to manufacturer's instructions.

Substance: proNGF: proneurotrophin precursor of nerve growth factor, produced in Sf9 cells and purified
- growth cone collapse in cortical neurons: displayed growth cone collapse
